For experiment [1], the system named is Splenic B cell from Balb/c nu/nu mice. The experiment can be described thus: LPS-induced antibody production from mouse B cells in vitro. The class given is cell-based. The following applies: Mouse spleen, stimulus LPS/IL-4, readout IgM, mean of at least two experiments. Here is the method:
The LPS-induced B cell functions were investigated according to a protocol adapted from Moon (Moon et al 1989) with minor modifications: Splenic B cell from Balb/c nu/nu mice were cultured with mIL-4, mIL-5 and LPS in the presence of titrated amounts of compound. The final concentrations were 0.5×10^5 splenocytes/well, 500 U/ml mIL-4, 500 U/ml mIL-5, and 50 μg/ml LPS. Supernatants were analyzed for antibody production by ELISA after 6 days of incubation.

For experiment [2], the system named is Akt-phosphorylation in IgM+ B cells. The experiment can be described thus: Time-dependent inhibition of Akt-phosphorylation ex vivo by a single oral dose in rats. Also noted: species or system Lewis rats. The following applies: 10 mg/kg p.o. single dose; for inhibition at 10 mg/kg: Rattus norvegicus, B-cell, po; for % inhibition of pAkt in IgM+ B cells: rat, individual rats 1-4, 10 mg/kg. As for the experimental part: All experiments were performed with adult male Lewis rats (LEW/Han/Hsd, Charles River, Germany and LEW/Orl@Rj, Janvier, France), weighing 220-280 g.
The suspension for administration was freshly prepared and stored in the dark at room temperature. 14.8 mg of compound A was suspended in 5.92 ml CMC 0.5% with 0.5% Tween80. The milky, homogeneous suspensions were then applied to the animal. The test substances were administered p.o. at in a volume of 4 ml/kg body weight resulting in an oral dose of 10 mg/kg.
Animals were anaesthetized with isoflurane using a Fluvac airflow system. Whole blood was collected sublingually pre-dose and at 1, 2, 4, 6, 8, 10, 12 and 24 hours post-dose. For pharmacodynamic analysis 100 μl rat blood was collected per time point in Eppendorf tubes with 30 IU sodium heparin (B. Braun, Melsungen, Germany; 5000 I.U./ml). For pharmacokinetic analysis 150 μl rat blood was collected per time point in EDTA coated Eppendorf (Milian cat# TOM-14) tubes.
For ex vivo analysis of blood from drug-treated animals, […] heparinized blood was mixed in 5 ml U-bottom tubes (BD, cat#352063) with […] of RPMI medium (Gibco, cat#31870) immediately after blood collection, and activated with 10 μl of anti-rat IgM/rIL-4 at a final concentration of anti-rat IgM of […] and rIL-4 of 10 ng/ml. Control samples were left unstimulated. Samples were mixed thoroughly and incubated for 10 minutes at 37° C. in the water bath.
After incubation, 2 ml of pre-warmed (37° C. in water bath) BD Phosflow Lyse/Fix buffer was added per tube. Samples were mixed thoroughly and incubated for 20 minutes at 37° C. in the water bath. Then samples were centrifuged at 400 g for 5 minutes. After centrifugation 2 ml of BD Phosflow Perm/wash buffer was added per tube. Samples were mixed thoroughly and incubated at room temperature (RT) in the dark for 10 minutes. Thereafter, the samples were snap-frozen on dry ice and then stored at −80° C. until FACS staining.
For thawing, all samples were incubated for 10 minutes in the water bath at 25° C. After centrifugation at 400 g for 5 minutes the pellets were washed with 2 ml of BD Phosflow Perm/wash buffer and again centrifuged at 400 g for 5 minutes. Supernatants were removed. For analysis of pAkt, samples were stained with PE-labeled anti-rat IgM (BD, cat#553888) to allow gating on B cells in FACS analysis. In addition, samples were stained with Alexa647 conjugated anti-phospho-Akt (Ser473; BD, cat#560343). Staining procedures were performed in a total volume of 100 μl BD Phosflow Perm/wash buffer at RT for 30 minutes in the dark. After incubation, samples were washed with 2 ml of BD Phosflow Perm/wash buffer and centrifuged at 400 g for 5 minutes and the pellets were resuspended in 300 μl BD Stain Buffer (BD, cat#554656). Samples were kept on ice until data were acquired on an LSRII flow cytometer (BD Biosciences) using DIVA software (version 6.1.2). Lymphocytes were gated in the FSC/SSC dot blot according to size and granularity and further analyzed for expression of IgM and phosphorylation of Akt. Data were calculated from dot blots or histograms as percentage of cells positively stained for Akt-phosphorylation within the IgM+ population.
The effects of the drugs ex vivo were expressed as inhibition of Akt-phosphorylation measured by flow cytometry. The percentage inhibition of Akt-phosphorylation was calculated by the following formula: […]
Group of four Lewis rats were treated with a single oral dose of 10 mg/kg of compound A. At indicated time points, 50% rat whole blood was stimulated with anti-rat IgM/rIL-4 and Akt-phosphorylation was determined as described in the Method section.

Several values for one entry are separate records, joined by “and”; a condition that tells them apart may be missing. Equal values may be shown once. Read-outs that look alike come from different tables or passages of the source.

The term IC50 denotes the concentration that inhibits the measured activity by half. Higher therefore signals weaker potency. One may read the inhibition as the relative decrease from the control value, in per cent. `CCC(=O)N1CC[C@H](Nc2ncnc3c2CN(c2cnc(OC)c(C(F)(F)F)c2)CC3)C1` [Compound A, 1-{(S)-3-[6-(6-Methoxy-5-trifluoromethyl-pyridin-3-yl)-5,6,7,8-tetrahydro-pyrido[4,3-d]pyrimidin-4-ylamino]-pyrrolidin-1-yl}-propan-1-one] yielded an IC50 in experiment [1] of 234 nM. Moreover, the inhibition at 10 mg/kg in experiment [2] (0 h, time 0 h (pre-dose), mean of four animals, read-out: % inhibition of pAkt in IgM+ B cells, Average) stood at 0%; in experiment [2] (1 h, time 1 h, individual rats 1-4, read-out: % inhibition of pAkt in IgM+ B cells) it was 100%; in experiment [2] (1 h, time 1 h, mean of four animals, read-out: % inhibition of pAkt in IgM+ B cells, Average), 98.2%; in experiment [2] (2 h, time 2 h, individual rats 1-4, read-out: % inhibition of pAkt in IgM+ B cells), 101%; in experiment [2] (2 h, time 2 h, mean of four animals, read-out: % inhibition of pAkt in IgM+ B cells, Average) it was 99.6%; in experiment [2] (4 h, time 4 h, mean of four animals, read-out: % inhibition of pAkt in IgM+ B cells, Average) it was 95.1%. For the same molecule, the inhibition at 10 mg/kg was found to be 88.2% in experiment [2] (6 h, time 6 h, mean of four animals, read-out: % inhibition of pAkt in IgM+ B cells, Average); 79.4% in experiment [2] (8 h, time 8 h, mean of four animals, read-out: % inhibition of pAkt in IgM+ B cells, Average); 69% in experiment [2] (10 h, time 10 h, individual rats 1-4, read-out: % inhibition of pAkt in IgM+ B cells); 70.7% in experiment [2] (10 h, time 10 h, mean of four animals, read-out: % inhibition of pAkt in IgM+ B cells, Average); 74.3% in experiment [2] (12 h, time 12 h, individual rats 1-4, read-out: % inhibition of pAkt in IgM+ B cells); 72.1% in experiment [2] (12 h, time 12 h, mean of four animals, read-out: % inhibition of pAkt in IgM+ B cells, Average). In addition, the inhibition at 10 mg/kg in experiment [2] (24 h, time 24 h, mean of four animals, read-out: % inhibition of pAkt in IgM+ B cells, Average) came out at 30.2%. The “% inhibition of pAkt in IgM+ B cells” value in experiment [2] (time 0 h (pre-dose)) is −2.0% and 15.7% and 6.9% and −20.6%; in experiment [2] (time 1 h), 95.6% and 99.1%; in experiment [2] (time 2 h) it was 97.3% and 101.8%; in experiment [2] (time 4 h), 93.8% and 105.3% and 81.4%; in experiment [2] (time 6 h) it was 76.1% and 99.1% and 94.7% and 83.1%; in experiment [2] (time 8 h), 83.1% (2×) and 85.8% and 65.4%. Further, the “% inhibition of pAkt in IgM+ B cells” value in experiment [2] (time 10 h) is 76.9% and 62.7%; in experiment [2] (time 12 h), 71.6% and 73.4%; in experiment [2] (time 24 h), 30.8% and 40.6% and 37.0% and 12.2%.

For the origin of these results see US20190038628A1, “USE OF INHIBITORS OF THE ACTIVITY OR FUNCTION OF PI3K FOR THE TREATMENT OF PRIMARY SJOGREN'S SYNDROME” (Novartis AG, priority 2016, published 2019).
